Results: US20100130737A1, “Regulating Agent of GPR34 Receptor Function” (TAKEDA PHARMACEUTICAL COMPANY LIMITED, priority 2005, published 2010)

Experiments:
[1] = tested on: rat peritoneal mast cells; experiment: Degranulation inhibiting activity in rat peritoneal mast cells (β-hexosaminidase release); format: cell-based; settings: for degranulation of rat peritoneal mast cells due to LysoPS and DNP-BSA stimulation: 10 μM compound, co-stimulation with 3 μM LysoPS and 100 ng/ml DNP-BSA = 100%, spontaneous degranulation = 0%
Description: Ice-cooled mast cell medium (hereunder called MCM: 150 mM NaCl, 3.7 mM KCl, 3.0 mM NaH2PO4, 3.5 mM KH2PO4, 5.6 mM (D)-Glucose, 0.1% bovine serum albumin (BSA), 0.1% gelatin, 10 U/ml heparin, pH 6.8) was injected intraperitoneally into rats, about 40 ml per rat, the abdomens were massaged for about 2 minutes and then opened along the median line, and ascites was collected. The collected ascites were filtered with a cell strainer (Becton Dickinson) and centrifuged for 7 minutes at 50×g, and the precipitated cells were suspended in MCM and then centrifuged again for 7 minutes at 50×g. The precipitated cells were suspended in 5 ml of MCM, layered over 2 ml of 32% (w/v) BSA solution (dissolved in 0.9% NaCL), and left for 20 minutes at room temperature. This was centrifuged for 15 minutes at room temperature at 300×g, the cells between the MCM and BSA solution were discarded, and the precipitated cells were suspended in MCM and washed twice by being centrifuged for 5 minutes at 300×g. The precipitated cells were suspended in assay buffer (150 mM NaCl, 3.7 mM KCl, 3.0 mM NaH2PO4, 3.5 mM KH2PO4, 0.9 mM CaCl2, 5.6 mM (D)-Glucose, 0.01% BSA, pH 6.8), and these cells were used in the following test.
RPMC cells suspended in assay buffer were passively sensitized by adding 10 μg/ml of monoclonal mouse anti-DNP-IgE (Seikagaku) and leaving them for 30 minutes on ice. After 5 minutes of centrifugation at 300×g, the precipitated cells were washed 3 times with assay buffer. The RPMC cells suspended in assay buffer were dispensed on 96-well V-bottom plates, 2×10^4 cells per well. The assay was performed with n=3 under each set of reaction conditions. The plates were maintained for 5 minutes at 37° C., the test compound was added, and after 15 minutes lysoPS (Sigma) was added to a final concentration of 3 μM and DNP-BSA (Calbiochem) to a final concentration of 100 ng/ml for a final capacity of 200 and left on a water bath at 37° C. After 20 minutes, the plate was ice cooled to stop RPMC activation, followed by 5 minutes of centrifugation at 300×g, and β-hexosaminidase activity in the supernatant was measured using 4-methylumbelliferyl-2-acetamido-2-deoxy-β-D-glucopyranoside (Wako Pure Chemical) degradation as the indicator.

[2] = molecular target: T1, human GPR34 (Homo sapiens, UniProt Q9UPC5); experiment: Human GPR34 antagonist activity as indicated by cAMP in human GPR34-expressing CHO cells; format: cell-based; set-up: expressed in transfected cells; settings: for cAMP (%): buffer only = 0%, 2.5 μM Forskolin = 100%
T1 sequence (Q9UPC5 whole entry): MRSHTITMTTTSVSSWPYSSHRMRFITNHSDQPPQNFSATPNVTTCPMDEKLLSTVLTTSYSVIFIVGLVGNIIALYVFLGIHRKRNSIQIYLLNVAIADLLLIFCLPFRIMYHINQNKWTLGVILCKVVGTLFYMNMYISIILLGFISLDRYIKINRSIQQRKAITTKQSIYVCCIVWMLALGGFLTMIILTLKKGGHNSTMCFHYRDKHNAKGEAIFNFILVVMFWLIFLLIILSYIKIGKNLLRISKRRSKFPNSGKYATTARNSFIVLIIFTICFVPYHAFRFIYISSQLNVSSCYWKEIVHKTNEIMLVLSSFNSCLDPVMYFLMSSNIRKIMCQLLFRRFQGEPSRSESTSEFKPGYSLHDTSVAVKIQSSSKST
Description: Human GPR34-expressing CHO cells were maintained in nucleic acid-free MEM-a (Invitrogen) containing 10% dialyzed FBS (Invitrogen) and penicillin and streptomycin (BioWhittaker) (hereunder described as culture medium), and on the day before assay the cells were stripped with trypsin/EDTA (Invitrogen), centrifuged, re-suspended in culture medium and seeded 2×10^5 per well, 1 ml/well on a 24-well plate (Nunc). The seeded cells were cultured overnight at 37° C. in a CO2 incubator, and subjected to cAMP assay the next day.
The plate was washed twice, 500 μL/well with Hank's balanced salt solution (HBSS, Invitrogen) containing 20 mM HEPES (1 M HEPES solution, Dojindo) with 0.2 mM 3-isobutyl-1-methylxanthine (IBMX, Wako Pure Chemical) added thereto (hereunder described as assay buffer (HBSS+HEPES-FIBMX)), and kept warm for 30 minutes in a water bath at 37° C. Next, 250 μL of assay buffer (HBSS+HEPES+IBMX) was substituted, and the plate was kept for a further 15 minutes in a water bath at 37° C. 2 μl of GPR34 antagonist compound solution at 250× the final concentration was added and gently stirred with a plate mixer, 2 μL, of lysoPS (Sigma or Alexis) at 250× the final concentration and 5 μM (2× the final concentration) of Forskolin (Wako Pure Chemical) were added, and 250 μL, of assay buffer (HBSS+HEPES+IBMX) was added and reacted for 30 minutes in a water bath at 37° C. In the case of the human GPR34-expressing CHO cells, 2 μL of 50 μM lysoPS was added so that the final concentration would be roughly the EC50 value of 0.2 μM. After completion of the reaction, intracellular cAMP was detected by competitive EIA using a cAMP Screen System (Applied Biosystems). After completion of the assay, 200 μL, of the Assay/lysis buffer for the cAMP Screen System was substituted, and intracellular cAMP was extracted by maintaining the cells for about 40 minutes at 37° C. EIA was then performed in accordance with the cAMP Screen Systems protocols to assay intracellular cAMP.
Relative percentage values were calculated by Microsoft Excel with the cAMP level with only assay buffer (HBSS+HEPES+IBMX) added (“None” in the table) given as 0%, and the cAMP level with the final concentration 2.5 μM Forskolin added given as 100%.

[3] = molecular target: T1, human GPR34; experiment: Human GPR34 antagonist activity indicated by changes in intracellular calcium concentration (FLIPR); format: cell-based; set-up: expressed in transfected cells; host or cells: CHO cells (human GPR34CHO line) stably transfected with pCR3.1 human lung Gα16; settings: CHO cells expressing human GPR34/Gα16, against 2 μM lysoPS final concentration, Fluo-3AM
Description: CHO cells expressing human GPR34/Gα were diluted to 3×10^4/100 μl in cell culture medium [nucleic acid-free Minimum Essential Alpha Medium (Invitrogen) containing 10% dialyzed fetal bovine serum (Invitrogen) 0.5 mg/ml Geneticin (Invitrogen), penicillin and streptomycin (Invitrogen)], dispensed 100 μl per well into a Black walled 96-well plate (Costar), and cultured overnight in a CO2 incubator. Changes in intracellular calcium concentration were measured with a FLIPR (Molecular Device) by the methods described below.
50 μg of Fluo-3AM (Dojindo) was dissolved in 21 μl of DMSO (Dojindo), an equal amount of 20% pluronic acid (Molecular Probes) was added and mixed, and this was added to 10.6 ml of assay buffer [prepared by adding 20 ml of 1 M HEPES (pH 7.4, Dojindo) to HBSS (Invitrogen), and then adding 10 ml of a solution obtained by dissolving 710 mg of Probenecid (Sigma) in 5 ml of 1 N NaOH and then adding and mixing 5 ml of the HBSS/HEPES solution)] with 105 μl of fetal bovine serum added thereto to prepare a fluorescent dye solution. The medium was removed from the cell plate, 100 μl per well of the fluorescent dye solution was immediately poured in, and the cells were cultured for 1 hour in a CO2 incubator to incorporate the fluorescent dye into the cells. After culture, the cells were washed with the aforementioned assay buffer. The compound was dissolved in DMSO (Wako Pure Chemical), diluted with DMSO as necessary, added to the aforementioned assay buffer to the target concentration and poured into the plate. To measure antagonist activity, 8 μM lysophosphatidyl serine (lysoPS, Alexis) solution (2 μM final concentration during reaction) was poured into the plate, which was set in the FLIPR. Following these preliminaries, the agonist effect was measured in the FLIPR by measuring changes in intracellular calcium concentration up to 180 seconds after addition of the sample, and after 200 seconds lysoPS was added and the antagonist effect was measured. In the case of the agonist effect, the EC50 value of the added compound was calculated from the dose reaction curve using changes in fluorescent strength from 0 to 180 seconds after the start of the reaction. In the case of the antagonist effect, the IC50 was calculated from the dose reaction curve using changes in maximum fluorescent strength after 200 to 380 seconds of reaction time. The data was analyzed using “GraphPad PRISM4”.

[4] = tested on: rat peritoneal mast cells; experiment: Degranulation inhibiting activity in rat peritoneal mast cells (β-hexosaminidase release); format: cell-based

Molecule: COC(=O)CC(=O)NC1(C(=O)O)Cc2ccc(-c3ccc(Cl)cc3)cc2C1 (stereo not shown) [Example B13]
- degranulation of rat peritoneal mast cells due to LysoPS and DNP-BSA stimulation [1]: 10%

Molecule: O=C(Cc1ccc(OCc2ccc(F)cc2)cc1)NC1(C(=O)O)Cc2ccc(-c3ccc(Cl)cc3)cc2C1 (stereo not shown) [Example B134]
- cAMP (%) ([2]; 10 μM compound + 2.5 μM Forskolin + 0.2 μM LysoPS): 299%
- restoration of cAMP levels (in words) ([2]; at 10 μM): restored cAMP levels to at or above the level before Forskolin stimulus
- melting point: 208 to 209 °C

Molecule: O=C(Cc1ccc(OCc2ccccc2)cc1)NC1(C(=O)O)Cc2ccc(-c3ccc(Cl)cc3)cc2C1 (stereo not shown) [Example B174, 2-({[4-(Benzyloxy)phenyl]acetyl}amino)-5-(4-chlorophenyl)indan-2-carboxylic acid]
- degranulation of rat peritoneal mast cells due to LysoPS and DNP-BSA stimulation [1]: 8%

Molecule: Cc1c(C(=O)N[C@@H](Cc2ccc(OCc3ccccc3)cc2)C(=O)O)oc2cc(-c3ccc(Cl)cc3)ccc12 [Example C115, O-Benzyl-N-{[6-(4-chlorophenyl)-3-methyl-1-benzofuran-2-yl]carbonyl}-L-tyrosine]
- degranulation of rat peritoneal mast cells due to LysoPS and DNP-BSA stimulation [1]: 20%
- melting point: 143 to 144 °C

Molecule: CCCOc1ccc(-c2ccc3sc(C(=O)N[C@@H](Cc4ccc(OCc5ccc(F)cc5)cc4)C(=O)O)cc3c2)cc1 [Example C131, O-(4-Fluorobenzyl)-N-{[5-(4-propoxyphenyl)-1-benzothiophene-2-yl]carbonyl}tyrosine]
- degranulation of rat peritoneal mast cells due to LysoPS and DNP-BSA stimulation [1]: 10.2%
- IC50 [3]: ≤ 1000 nM
- melting point: 211 to 212 °C

Molecule: O=C(N[C@@H](Cc1ccc(OCc2ccc(F)cc2)cc1)C(=O)O)c1cc2cc(-c3ccc(Cl)cc3)ccc2s1 [Example C133, N-{[5-(4-Chlorophenyl)-1-benzothiophene-2-yl]carbonyl}-O-(4-fluorobenzyl)tyrosine]
- degranulation of rat peritoneal mast cells due to LysoPS and DNP-BSA stimulation [1]: 12.4%
- IC50 [3]: ≤ 1000 nM
- melting point: 189 to 190 °C

Molecule: O=C(N[C@@H](Cc1ccc(OCc2ccc(F)cc2)cc1)C(=O)O)c1cc2ccc(-c3ccc(Cl)cc3)cc2o1 [Example C157, N-{[6-(4-Chlorophenyl)-1-benzofuran-2-yl]carbonyl}-O-(4-fluorobenzyl) tyrosine]
- degranulation of rat peritoneal mast cells due to LysoPS and DNP-BSA stimulation [1]: 4.8%
- IC50 [3]: ≤ 1000 nM
- melting point: 166 to 168 °C

Molecule: CN(C(=O)c1cn2ccc(-c3ccc(Cl)cc3)cc2n1)[C@@H](Cc1ccc(OCc2ccccc2)cc1)C(=O)O [Example E51, O-Benzyl-N-{[7-(4-chlorophenyl)imidazo[1,2-a]pyridin-2-yl]carbonyl}-N-methyltyrosine]
- degranulation of rat peritoneal mast cells due to LysoPS and DNP-BSA stimulation [1]: 5.0%
- IC50 [3]: ≤ 1000 nM
- melting point: 222 °C

Molecule: O=C(NC(Cc1ccc(OCc2ccccc2)cc1)C(=O)O)c1cn2cc(CCc3ccccc3)ccc2n1 (stereo not shown) [Example E57, O-Benzyl-N-{[6-(2-phenethyl)imidazo[1,2-a]pyridin-2-yl]carbonyl}tyrosine]
- degranulation of rat peritoneal mast cells due to LysoPS and DNP-BSA stimulation [1]: 8.3%
- melting point: 239 °C (dec.)

Molecule: Cc1ccc(COc2ccc(C[C@H](NC(=O)c3cn4ccc(-c5ccc(Cl)cc5)cc4n3)C(=O)O)cc2)cc1 [Example E59, N-{[7-(4-Chlorophenyl)imidazo[1,2-a]pyridin-2-yl]carbonyl}-O-(4-methylbenzyl)tyrosine]
- degranulation of rat peritoneal mast cells due to LysoPS and DNP-BSA stimulation [1]: 5.1%
- IC50 [3]: ≤ 1000 nM
- melting point: 262 °C

Molecule: O=C(N[C@@H](Cc1ccc(OCc2ccc(Cl)cc2)cc1)C(=O)O)c1cn2ccc(-c3ccc(Cl)cc3)cc2n1 [Example E63, O-(4-Chlorobenzyl)-N-{[7-(4-chlorophenyl)imidazo[1,2-a]pyridin-2-yl]carbonyl}tyrosine]
- degranulation of rat peritoneal mast cells due to LysoPS and DNP-BSA stimulation [1]: 5.7%
- IC50 [3]: ≤ 1000 nM
- melting point: 261 °C

Molecule: CCc1ccc(COc2ccc(C[C@H](NC(=O)c3cn4ccc(-c5ccc(Cl)cc5)cc4n3)C(=O)O)cc2)cc1 [Example E65, N-{[7-(4-Chlorophenyl)imidazo[1,2-a]pyridin-2-yl]carbonyl}-O-(4-ethylbenzyl) tyrosine]
- degranulation of rat peritoneal mast cells due to LysoPS and DNP-BSA stimulation [1]: 8.8%
- IC50 [3]: ≤ 1000 nM
- melting point: 245 °C

Molecule: lisophosphatidylserine [lysoPS]
- RPMC degranulation ([1]; 100 ng/ml DNP-BSA stimulus + 3 μM lysoPS added simultaneously): 36.7%
- cAMP (%) ([2]; 0.2 μM LysoPS + 2.5 μM Forskolin): 43%
- EC50 ([2]; human GPR34-expressing CHO cells, cAMP assay, read-out: EC50 value of lysoPS): ~200 nM
- RPMC degranulation ([4]; 100 ng/ml DNP-BSA stimulus + 0.1 μM lysoPS added simultaneously): 8.4%
- RPMC degranulation ([4]; 100 ng/ml DNP-BSA stimulus + 0.3 μM lysoPS added simultaneously): 14.7%
- RPMC degranulation ([4]; 100 ng/ml DNP-BSA stimulus + 1 μM lysoPS added simultaneously): 26.0%
- RPMC degranulation ([4]; 100 ng/ml DNP-BSA stimulus + 10 μM lysoPS added simultaneously): 45.2%
